Measurements taken from publication PMC10247784, “Physiological activation of human and mouse bitter taste receptors by bile acids” (Communications Biology, 2023).

Molecular target: T1, mouse Tas2r117 (Mus musculus, UniProt Q7M715)
T1 construct: expressed in transfected cells; host or cells: HEK293T-Gα16gust44
T1 sequence (Q7M715 1-330): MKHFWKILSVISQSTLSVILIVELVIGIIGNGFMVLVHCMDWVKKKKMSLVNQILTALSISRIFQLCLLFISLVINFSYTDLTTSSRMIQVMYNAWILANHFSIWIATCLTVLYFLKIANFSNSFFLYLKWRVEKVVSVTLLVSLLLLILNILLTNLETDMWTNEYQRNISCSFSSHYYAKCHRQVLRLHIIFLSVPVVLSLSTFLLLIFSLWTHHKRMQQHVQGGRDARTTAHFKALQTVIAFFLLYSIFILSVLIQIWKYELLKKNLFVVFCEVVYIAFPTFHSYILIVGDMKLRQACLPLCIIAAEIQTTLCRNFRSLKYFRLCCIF
Experiment: Calcium imaging assay (FLIPR), HEK293T-Gα16gust44 cells transfected with mouse Tas2r117
Type: cell-based
Conditions: for Δ F/F: Tas2r117; for RLU: sheet Tas2r117, time trace
Protocol: This set of bile acids was chosen because of their commercial availability in high purities, their diversity within the class of bile acids and their previous detection and quantitation in human blood. Stock solutions were prepared in DMSO.
As basal growth medium for the HEK293T-Gα16gust44 cell line[17],[59] served Dulbecco’s modified eagle medium (DMEM) (Thermo Fisher Scientific, Darmstadt, Germany) supplemented with 10 % fetal bovine serum (Sigma-Aldrich, Steinheim, Germany), 2 mM L-glutamine (Sigma-Aldrich, Steinheim, Germany), 100 units/ml penicillin (Sigma Aldrich, Steinheim, Germany) and 100 µg/ml streptomycin (Sigma Aldrich, Steinheim, Germany). Growth conditions were 37 °C, 5 % CO2 and saturated air-humidity[60].
HEK293T-Gα16gust44 cells were seeded on poly-D-lysine (10 µg/ml) coated 96-well plates to reach a confluence of 40-60 % the next day. For transient transfection 150 ng of plasmid DNA containing the receptor of interest and 0.3 µl lipofectamine 2000 (Thermo Fisher Scientific, Darmstadt, Germany) per well were used and transfection took place according to the manual of lipofectamine 2000. […] The empty vector DNA (mock) was transfected as negative control[14],[41].
Cells were loaded using the calcium-sensitive fluorescent dye Fluo-4-AM (Abcam, Cambridge, Great Britain) in the presence of 2.5 mM probenecid (Sigma-Aldrich, Steinheim, Germany) the day after transfection[13],[41]. 1 h after loading, cells were washed with C1 buffer using a BioTek Cell Washer, incubated in the dark for half an hour and washed again. For automated agonist application and measurement of fluorescence changes, a FLIPR^TETRA device (Molecular Devices, San José, United States) was used. Viability of cells was tested by application of 100 nM Somatostatin 14 (Bachem, Bubendorf, Switzerland)[42].
Measured data were negative control corrected by subtracting the signal of the mock-transfected cells and exported to Microsoft Excel using the FLIPR software ScreenWorks 4.2. In Microsoft Excel software, standardization of maximum fluorescence intensities to the basal fluorescence and normalization to the buffer-only control was done to calculate the relative fluorescence changes (ΔF/F).
Initial screening experiments performed in duplicate wells were confirmed by at least one replication and representative traces were selected for display. All dose-response relationships were determined by three independent experiments (biological replicates) performed in duplicates (technical replicates). Threshold concentrations, defined as lowest substance concentrations leading to statistically significant elevated fluorescence changes in receptor-transfected cells compared with empty vector-transfected cells, were determined using SigmaPlot with Student’s t-test to evaluate statistical significance (p < 0.01).

Δ F/F (conc. 0,01 mM): 0.04745 | Δ F/F (conc. 0,1 mM): 0.1208 | Δ F/F (conc. 0,03 mM): 0.08527 | Δ F/F (conc. 0,3 mM): 0.126 | Δ F/F (conc. 0,0003 mM): 0.0009082 | Δ F/F (conc. 0,001 mM): -0.007003 | Δ F/F (conc. 0,003 mM): 0.01508 | RLU (Time (s) 0): 0 RLU | RLU (Time (s) 2): -1.6624 RLU | RLU (Time (s) 4): 36.4597 RLU | RLU (Time (s) 6): 6 RLU | RLU (Time (s) 8): 8.49 RLU | RLU (Time (s) 12): -1.574 RLU | RLU (Time (s) 14): -17.8222 RLU | RLU (Time (s) 16): -9.405 RLU | RLU (Time (s) 18): -10.6465 RLU | RLU (Time (s) 18.797): -31.8582 RLU | RLU (Time (s) 20.797): -50.2175 RLU | RLU (Time (s) 22.797): -35.3697 RLU | RLU (Time (s) 24.797): -21.9519 RLU | RLU (Time (s) 26.797): 21.3834 RLU | RLU (Time (s) 28.797): 104.133 RLU | RLU (Time (s) 30.797): 136.733 RLU | RLU (Time (s) 32.797): 195.234 RLU | RLU (Time (s) 34.797): 290.459 RLU | RLU (Time (s) 36.797): 340.932 RLU | RLU (Time (s) 38.797): 397.791 RLU | RLU (Time (s) 40.797): 414.428 RLU | RLU (Time (s) 42.797): 437.759 RLU | RLU (Time (s) 44.797): 439.85 RLU | RLU (Time (s) 46.797): 450.862 RLU | RLU (Time (s) 48.797): 498.067 RLU | RLU (Time (s) 50.797): 490.971 RLU | RLU (Time (s) 52.797): 511.962 RLU | RLU (Time (s) 54.797): 520.574 RLU | RLU (Time (s) 56.797): 524.281 RLU | RLU (Time (s) 58.797): 554.582 RLU | RLU (Time (s) 60.797): 523.267 RLU | RLU (Time (s) 62.797): 554.128 RLU | RLU (Time (s) 64.797): 560.589 RLU | RLU (Time (s) 66.797): 586.355 RLU | RLU (Time (s) 68.797): 595.813 RLU | RLU (Time (s) 70.797): 569.01 RLU | RLU (Time (s) 72.797): 587.543 RLU | RLU (Time (s) 74.797): 600.561 RLU | RLU (Time (s) 76.797): 625.108 RLU | RLU (Time (s) 78.797): 601.569 RLU | RLU (Time (s) 80.797): 601.653 RLU | RLU (Time (s) 82.797): 613.098 RLU | RLU (Time (s) 84.797): 590.202 RLU | RLU (Time (s) 86.797): 586.509 RLU | RLU (Time (s) 88.797): 591.824 RLU | RLU (Time (s) 90.797): 608.043 RLU | RLU (Time (s) 92.797): 567.854 RLU | RLU (Time (s) 94.797): 592.934 RLU | RLU (Time (s) 96.797): 555.343 RLU | RLU (Time (s) 98.797): 591.525 RLU | RLU (Time (s) 100.797): 565.961 RLU | RLU (Time (s) 102.797): 558.057 RLU | RLU (Time (s) 104.797): 568.873 RLU | RLU (Time (s) 106.797): 600.41 RLU | RLU (Time (s) 108.797): 557.119 RLU | RLU (Time (s) 110.797): 566.614 RLU | RLU (Time (s) 112.797): 544.906 RLU | RLU (Time (s) 114.797): 533.624 RLU | RLU (Time (s) 116.797): 578.387 RLU | RLU (Time (s) 118.797): 540.575 RLU | RLU (Time (s) 120.797): 553.404 RLU | RLU (Time (s) 122.797): 531.136 RLU | RLU (Time (s) 124.797): 541 RLU | RLU (Time (s) 126.797): 530.303 RLU | RLU (Time (s) 128.797): 505.327 RLU | RLU (Time (s) 130.797): 508.223 RLU | RLU (Time (s) 132.797): 529.676 RLU | RLU (Time (s) 134.797): 490.998 RLU | RLU (Time (s) 136.797): 480.544 RLU | RLU (Time (s) 137.562): 494.151 RLU | RLU (Time (s) 143.578): 475.248 RLU | RLU (Time (s) 149.578): 448.977 RLU | RLU (Time (s) 155.578): 429.963 RLU | RLU (Time (s) 161.578): 410.536 RLU | RLU (Time (s) 167.578): 411.276 RLU | RLU (Time (s) 173.578): 378.737 RLU | RLU (Time (s) 179.578): 356.849 RLU | RLU (Time (s) 191.578): 338.845 RLU | RLU (Time (s) 197.578): 316.205 RLU | RLU (Time (s) 209.578): 296.441 RLU | RLU (Time (s) 221.578): 181.834 RLU | RLU (Time (s) 233.578): 175.03 RLU | RLU (Time (s) 239.578): 155.758 RLU | RLU (Time (s) 245.578): 143.461 RLU | RLU (Time (s) 293.578): 87.8538 RLU | RLU (Time (s) 299.578): 79.8727 RLU | RLU (Time (s) 305.578): 78.6198 RLU | RLU (Time (s) 311.578): 69.0671 RLU | RLU (Time (s) 317.578): 91.9062 RLU | RLU (Time (s) 323.578): 87.6118 RLU | RLU (Time (s) 329.578): 65.9416 RLU | RLU (Time (s) 335.578): 41.2589 RLU | RLU (Time (s) 341.578): 94.1086 RLU | RLU (Time (s) 347.578): 67.2353 RLU | RLU (Time (s) 353.578): 54.4225 RLU | RLU (Time (s) 359.578): 85.0918 RLU | EC50 (calculated where receptor saturation was reached, read-out: EC50 Tas2r117): 16 ± 2.5 µM | Activation threshold concentration Tas2r117 (p < 0.01 vs empty vector): 3 µM
Structure (SMILES): C[C@H](CCC(=O)NCC(=O)O)[C@H]1CC[C@H]2[C@@H]3[C@H](O)C[C@@H]4C[C@H](O)CC[C@]4(C)[C@H]3C[C@H](O)[C@]12C [Glycocholic Acid, glycocholic acid]
